{"source": "patent US11585819B2", "about": "“Bistrifilate-based fluorogenic probes for detection of superoxide anion radical” (THE UNIVERSITY OF HONG KONG, priority 2014, dated 2023)", "key": {"[1]": {"system": "Hela (human cervical epithelial cancer cells), BV-2 (mouse microglia), RAW264.7 (mouse macrophages)", "experiment": "Confocal imaging with HKSOX-2 of O2^•− induced by mitochondrial respiratory inhibitors", "assay_type": "cell-based", "parameters": "probe fluorescence response upon induction of mitochondrial O2^•−: dose or concentration left out as unconfirmed", "experimental": "We also tested HKSOX-2 (5 μM) in detection of O2^•− induced by mitochondrial respiratory inhibitors (30 min treatment): antimycin A (complex III inhibitor; 10 μM), rotenone (complex I inhibitor; 10 μM) and FCCP ([…]; 10 μM). To validate the inhibitor effects, three different types of cell were used: Hela (human cervical epithelial cancer cells), BV-2 (mouse microglia), and RAW264.7 (mouse macrophages).\n(§1) In each group, upper: fluorescence images; lower: fluorescence images merged with bright field images."}, "[2]": {"system": "HCT116 (human colon cancer cells), RAW264.7 (mouse macrophages), BV-2 (mouse microglia)", "experiment": "Confocal imaging with HKSOX-1r of O2^•− induced by mitochondrial respiratory inhibitors", "assay_type": "cell-based", "experimental": "To validate the inhibitor effects, three different types of cell were used: HCT116 (human colon cancer cells), RAW264.7 (mouse macrophages), and BV-2 (mouse microglia).\nas §1\n(left) Untreated cells incubated with probe alone for 30 min. (right) Cells co-incubated with probe and antimycin A (5 μM) for 30 min. Upper: fluorescence images; lower: fluorescence images merged with bright field images."}, "[3]": {"system": "mouse macrophages (RAW264.7 cells)", "experiment": "Confocal imaging of endogenous O2^•− with HKSOX-2m in PMA-activated macrophages", "assay_type": "cell-based", "conditions": "30 min; for effect on HKSOX-2m fluorescence in PMA-stimulated macrophages: Mdivi-1 100 μM, Gö6983 100 nM", "experimental": "(§2) We assessed the application of HKSOX-2m (2 μM) in confocal imaging of O2^•− in different types of cell. For detection of endogenous O2^•−, two different cell types were used: mouse macrophages (RAW264.7 cells) and mouse microglia (BV-2 cells). PMA (phorbol-12-myristate-13-acetate), a PKC activator and acute O2^•− inducer, was used to activate macrophages. The chemical scavenger TEMPOL (4-hydroxy-TEMPO; 300 μM) was used to remove O2^•− in activated macrophages. Mdivi-1 (100 μM), a Drp-1 (dynamin-related protein 1) inhibitor that inhibits mitochondrial fission and subsequent mitochondrial O2^•− production, was used to block mitochondrial O2^•− formation. Additionally, Gö6983 (100 nM), a PKC inhibitor, was used to abolish PMA-mediated effects in O2^•− induction."}, "[4]": {"system": "mouse microglia (BV-2 cells)", "experiment": "Confocal imaging of endogenous O2^•− with HKSOX-2m in PMA-activated microglia", "assay_type": "cell-based", "conditions": "30 min; for effect on HKSOX-2m fluorescence in PMA-stimulated microglia: Mdivi-1 100 μM, Gö6983 100 nM", "experimental": "as §2"}, "[5]": {"system": "RAW264.7 mouse macrophages", "experiment": "Confocal imaging of endogenous O2^•− with HKSOX-1r in LPS/IFN-γ activated macrophages", "assay_type": "cell-based", "experimental": "We assessed the application of HKSOX-1r in confocal imaging of O2^•− in different types of cell. For detection of endogenous O2^•−, we used mouse macrophages (RAW264.7 cells) as a cellular model. Bacterial lipopolysaccharide (LPS from Salmonella typhimurium; 500 ng/mL) and the proinflammatory cytokine interferon-γ (IFN-γ from mouse; 50 ng/mL) were used to activate macrophages. […] Additionally, the O2^•− decomposition catalyst FeTMPyP (50 μM) and chemical scavenger TEMPOL (4-hydroxy-TEMPO; 300 μM) were used to remove O2^•− in activated macrophages.\nThe cells were co-stained with mitochondrial dye MitoTracker Red (50 nM) and nuclear DNA dye Hoechst 33342 (150 ng/mL) for 30 min. Merged: all fluorescence images merged. (a) Untreated cells; (b) cells stimulated with LPS (500 ng/mL) and IFN-γ (50 ng/mL) for 14 h, followed by HKSOX-1r staining for 30 min; (c) cells co-treated with LPS/IFN-γ and gp91ds-tat (2 μM) for 14 h, followed by HKSOX-1r staining (30 min); (d) cells stimulated with LPS/IFN-γ for 14 h, followed by co-incubation of HKSOX-1r and FeTMPyP (50 μM) for 30 min; (e) cells stimulated with LPS/IFN-γ for 14 h, followed by co-incubation of HKSOX-1r and TEMPOL (300 μM) for 30 min."}, "[6]": {"experiment": "Fluorescence response of probe to O2^•− generated by xanthine/xanthine oxidase and to other oxidants, reductants, esterase and GSH in phosphate buffer", "conditions": "1 μM probe", "experimental": "The stock solution of HKSOX-1 (10 mM) is diluted in 0.1 M potassium phosphate buffer at pH 7.4 to obtain a 10 μM solution, with excitation and emission spectra at 509 nm and 534 nm, respectively. As expected, the probe HKSOX-1 was non-fluorescent (FIG. 1).\nThe stock solution of HKSOX-2 (1 mM) is diluted in 0.1 M potassium phosphate buffer at pH 7.4 to obtain a 1 μM solution, with excitation and emission spectra at 535 nm and 562 nm, respectively."}, "[7]": {"system": "BV-2 mouse microglial cells", "experiment": "Confocal imaging comparison of HKSOX-2m and MitoSOX Red with multiple superoxide inducers, co-staining with MitoTracker Green and Hoechst", "assay_type": "cell-based", "conditions": "for fluorescence with various stimulants: 40 min; for fluorescence turn-on response: Ex 543 nm", "experimental": "To further validate the performance of HKSOX-2m as a mitochondria-targeting superoxide probe, we conducted confocal imaging of HKSOX-2m with multiple superoxide inducers in BV-2 mouse microglial cells (FIG. 11), and compared HKSOX-2m's performance with that of MitoSOX Red™ (a widely used commercial fluorescent probe for mitochondrial superoxide detection; Invitrogen), by using the same drugs as stimulants (FIG. 12). Briefly, BV-2 cells were co-incubated for 40 min with probes (HKSOX-2m or MitoSOX Red™) and general superoxide inducers (PMA and zymosan, which elicit superoxide production from multiple superoxide sources including mitochondria) or specific mitochondrial superoxide inducers (diethyl succinate, diethyl malonate, and rotenone, which target the mitochondrial respiratory chain complexes). […] Slight spatial shifts in fluorescence signal were occasionally observed in the HKSOX-2m and MitoTracker Green channels, which could be accounted for by mitochondrial dynamics and time lag in confocal laser scanning for each channel. […] In fact, fluorescence distribution of the mitochondrial dye MitoTracker Green (Ex 488; Em 505 nm long-pass) was grossly distorted in the presence of MitoSOX Red™ (due to its broad tailing in emission spectrum), resulting in a loss of mitochondrial morphology."}, "[8]": {"system": "BV-2 mouse microglial cells", "conditions": "MitoSOX Red 5 μM (maximal dose according to manufacturer's protocol), extended incubation; cited from earlier work"}, "[9]": {"conditions": "TEMPOL 300 μM, readout HKSOX-2m 2 μM"}, "[10]": {"conditions": "30 min, antimycin A, rotenone, FCCP 5 μM, malonic acid 500 μM, readout HKSOX-1r 2 μM"}, "[11]": {"conditions": "30 min, antimycin A, rotenone, FCCP 10 μM, readout HKSOX-2"}}, "note": "Where two headings read alike, the source gives them in different places.", "data": [{"molecule": "N#CC(C#N)=NNc1ccc(OC(F)(F)F)cc1", "note": "[FCCP]", "values": [{"measurement": "degree of efficacy in inducing mitochondrial O2^•− production (rank order)", "setting": "[1]", "value": "antimycin A>FCCP>>rotenone"}, {"measurement": "degree of efficacy in inducing mitochondrial O2^•− production (rank order)", "setting": "[2]", "value": "antimycin A>FCCP>>rotenone>>malonic acid"}]}, {"molecule": "COc1ccc2c(c1)c(C1=C(c3c[nH]c4ccccc34)C(=O)NC1=O)cn2CCCN(C)C", "note": "[Gö6983]", "values": [{"measurement": "effect on HKSOX-2m fluorescence in PMA-stimulated macrophages", "setting": "[3]", "value": "reduced to near basal level"}, {"measurement": "effect on HKSOX-2m fluorescence in PMA-stimulated microglia", "setting": "[4]", "value": "reduced to near basal level"}]}, {"molecule": "COC(=O)CN(CC(=O)OC)C(=O)c1ccc2c(c1)C(=O)OC21c2cc(F)c(OS(=O)(=O)C(F)(F)F)c(F)c2Oc2c1cc(F)c(OS(=O)(=O)C(F)(F)F)c2F", "note": "[HKSOX-1r]", "values": [{"measurement": "probe fluorescence in stimulated macrophages relative to untreated ones", "setting": "[5]; HKSOX-1r 2 μM, 30 min staining, LPS 500 ng/mL and IFN-γ 50 ng/mL for 14 h", "value": "much stronger fluorescence signals"}, {"measurement": "probe fluorescence response upon induction of mitochondrial O2^•−", "setting": "[2]; HKSOX-1r at 2 μM, 30 min", "value": "strong fluorescence response"}]}, {"molecule": "CCOC(=O)CCCN1c2cc3c(cc2C(C)CC1(C)C)C1(OC(=O)c2ccccc21)c1cc(F)c(OS(=O)(=O)C(F)(F)F)c(F)c1O3", "note": "(stereo not drawn) [HKSOX-2]", "values": [{"measurement": "probe fluorescence response upon induction of mitochondrial O2^•−", "setting": "[1]; 30 min", "value": "strong fluorescence response"}, {"measurement": "enhancement in fluorescence intensity upon O2^•−", "setting": "[6]; 10 equiv of O2^•− generated by X/XO system, 15 min, pH 7.4", "value": "> 23", "unit": "fold"}, {"measurement": "increase in fluorescence signals by other oxidants, reductants, esterase and GSH", "setting": "[6]; 10 equiv of H2O2, NO, 1O2, ROO•, TBHP, •OH, ONOO−, HOCl, Fe2+, ascorbic acid, 1,4-hydroquinone, esterase 10 U/mL, GSH 5 mM", "value": "negligible increase"}]}, {"molecule": "CC1CC(C)(C)N(CCCC(=O)N2CCN(C(=O)CCCC[P+](c3ccccc3)(c3ccccc3)c3ccccc3)CC2)c2cc3c(cc21)C1(OC(=O)c2ccccc21)c1cc(F)c(OS(=O)(=O)C(F)(F)F)c(F)c1O3", "note": "(stereo not drawn) [HKSOX-2m]", "values": [{"measurement": "probe fluorescence in PMA-stimulated macrophages relative to untreated ones", "setting": "[3]; HKSOX-2m 2 μM, PMA 200 ng/mL", "value": "much stronger fluorescence signals"}, {"measurement": "probe fluorescence in PMA-stimulated microglia relative to untreated ones", "setting": "[4]; HKSOX-2m 2 μM, PMA 200 ng/mL", "value": "much stronger fluorescence signals"}, {"measurement": "fluorescence with various stimulants", "setting": "[7]; HKSOX-2m 2 μM, PMA, zymosan, diethyl succinate, diethyl malonate, rotenone", "value": "moderate to strong fluorescence"}, {"measurement": "fluorescence turn-on response", "setting": "[7]; HKSOX-2m working dose 2 μM, Em 559-623 nm band-pass", "value": "highly efficient"}]}, {"molecule": "COc1cc(-n2c(=S)[nH]c3ccccc3c2=O)c(Cl)cc1Cl", "note": "[Mdivi-1]", "values": [{"measurement": "effect on HKSOX-2m fluorescence in PMA-stimulated macrophages", "setting": "[3]", "value": "reduced to near basal level"}, {"measurement": "effect on HKSOX-2m fluorescence in PMA-stimulated microglia", "setting": "[4]", "value": "reduced to near basal level"}]}, {"molecule": "Nc1ccc2c(c1)C(c1ccccc1)N(CCCCCC[P+](c1ccccc1)(c1ccccc1)c1ccccc1)c1cc(N)ccc1-2.[I-]", "note": "(stereo not drawn) [MitoSOX Red™]", "values": [{"measurement": "toxicity of the working dose", "setting": "[7]; MitoSOX Red 4 μM", "value": "near-toxic"}, {"measurement": "fluorescence with various stimulants", "setting": "[7]; MitoSOX Red 4 μM, same stimulants", "value": "low to moderate fluorescence"}, {"measurement": "fluorescence turn-on response", "setting": "[7]; MitoSOX Red working dose 4 μM", "value": "rather sluggish"}, {"measurement": "toxicity of the maximal dose", "setting": "[8]", "value": "cytotoxic"}]}, {"molecule": "CC1(C)CC(O)CC(C)(C)N1[O]", "note": "[TEMPOL, 4-hydroxy-TEMPO]", "values": [{"measurement": "effect on the PMA-induced surge in O2^•− production", "setting": "[3]; [9]", "value": "greatly suppressed"}, {"measurement": "effect on the PMA-induced surge in O2^•− production", "setting": "[4]; [9]", "value": "greatly suppressed"}, {"measurement": "effect on HKSOX-1r fluorescence in LPS/IFN-γ activated macrophages", "setting": "[5]; FeTMPyP 50 μM or TEMPOL 300 μM co-incubated with HKSOX-1r for 30 min", "value": "substantially attenuated"}]}, {"molecule": "O=C(O)CC(=O)O", "note": "[malonic acid]", "values": [{"measurement": "degree of efficacy in inducing mitochondrial O2^•− production (rank order)", "setting": "[2]; [10]", "value": "antimycin A>FCCP>>rotenone>>malonic acid"}]}, {"molecule": "C=C(C)[C@H]1Cc2c(ccc3c2O[C@@H]2COc4cc(OC)c(OC)cc4[C@@H]2C3=O)O1", "note": "[rotenone]", "values": [{"measurement": "degree of efficacy in inducing mitochondrial O2^•− production (rank order)", "setting": "[1]; [11]", "value": "antimycin A>FCCP>>rotenone"}, {"measurement": "degree of efficacy in inducing mitochondrial O2^•− production (rank order)", "setting": "[2]; [10]", "value": "antimycin A>FCCP>>rotenone>>malonic acid"}]}, {"molecule": "antimycin A", "values": [{"measurement": "degree of efficacy in inducing mitochondrial O2^•− production (rank order)", "setting": "[1]; [11]", "value": "antimycin A>FCCP>>rotenone"}, {"measurement": "degree of efficacy in inducing mitochondrial O2^•− production (rank order)", "setting": "[2]; [10]", "value": "antimycin A>FCCP>>rotenone>>malonic acid"}]}]}
